The supplement of paper PMC10883282

Tests used:
Experiment in all cases: relative viability vs DMSO control (72 h) (fraction); higher = more viable cells
[1] = system: A204
Method in brief: (§1)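 Sarcoma cell lines were seeded in 384-well plates at densities chosen for 80–90% confluence, then 24 h later given 2.5 µl of serially diluted compound drawn from source plates spanning 10 mM to 0.0002 mM. They were held 72 h at 37 °C, 5% CO2, with 0.1% DMSO vehicle and a 5 µM positive control included. Relative viability was read with ATPLite as percent growth and averaged over up to triplicate wells. Rescaling placed full at 1 and none at 0.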

[2] = system: G401
Method in brief: as §1

[3] = system: HS729
Method in brief: as §1

[4] = system: KHOS-240S
Method in brief: as §1

[5] = system: MES-SA
Method in brief: as §1

[6] = system: RD
Method in brief: as §1

[7] = system: SK-ES-1
Method in brief: as §1

[8] = system: SK-LMS-1
Method in brief: as §1

[9] = system: SW1353
Method in brief: as §1

[10] = system: SW872
Method in brief: as §1

[11] = system: SW982
Method in brief: as §1

[12] = system: VA-ES-BJ
Method in brief: as §1

CC(C)(C)c1nc(-c2cccc(NS(=O)(=O)c3c(F)cccc3F)c2F)c(-c2ccnc(N)n2)s1 [Dabrafenib]
Details	relative viability
[1], 0.00017 µM	1
[1], 0.00051 µM	1.04
[1], 0.00152 µM	1.04
[1], 0.00457 µM	1.04
[1], 0.01372 µM	1.05
[1], 0.04115 µM	0.978
[1], 0.1235 µM	0.938
[1], 0.3704 µM	0.843
[1], 1.111 µM	0.76
[1], 3.333 µM	0.69
[1], 10 µM	0.614
[2], 0.00017 µM	0.982
[2], 0.00051 µM	0.994
[2], 0.00152 µM	0.916
[2], 0.00457 µM	0.937
[2], 0.01372 µM	0.949
[2], 0.04115 µM	0.955
[2], 0.1235 µM	0.929
[2], 0.3704 µM	0.857
[2], 1.111 µM	0.768
[2], 3.333 µM	0.781
[2], 10 µM	0.814
[3], 0.00017 µM	0.958
[3], 0.00051 µM	0.949
[3], 0.00152 µM	0.867
[3], 0.00457 µM	0.85
[3], 0.01372 µM	0.84
[3], 0.04115 µM	0.844
[3], 0.1235 µM	0.774
[3], 0.3704 µM	0.659
[3], 1.111 µM	0.63
[3], 3.333 µM	0.683
[3], 10 µM	0.811
[4], 0.00017 µM	1.07
[4], 0.00051 µM	1.06
[4], 0.00152 µM	1.04
[4], 0.00457 µM	1.03
[4], 0.01372 µM	1.01
[4], 0.04115 µM	1
[4], 0.1235 µM	1.03
[4], 0.3704 µM	1.01
[4], 1.111 µM	0.975
[4], 3.333 µM	0.964
[4], 10 µM	0.854
[5], 0.00017 µM	0.944
[5], 0.00051 µM	0.921
[5], 0.00152 µM	0.908
[5], 0.00457 µM	0.905
[5], 0.01372 µM	0.909
[5], 0.04115 µM	0.883
[5], 0.1235 µM	0.733
[5], 0.3704 µM	0.53
[5], 1.111 µM	0.504
[5], 3.333 µM	0.744
[5], 10 µM	0.745
[6], 0.00017 µM	1.07
[6], 0.00051 µM	1.07
[6], 0.00152 µM	1.07
[6], 0.00457 µM	1.11
[6], 0.01372 µM	1.12
[6], 0.04115 µM	1.1
[6], 0.1235 µM	1.1
[6], 0.3704 µM	0.989
[6], 1.111 µM	0.915
[6], 3.333 µM	0.871
[6], 10 µM	0.846
[7], 0.00017 µM	1.01
[7], 0.00051 µM	1.04
[7], 0.00152 µM	1
[7], 0.00457 µM	1.02
[7], 0.01372 µM	0.987
[7], 0.04115 µM	0.927
[7], 0.1235 µM	0.794
[7], 0.3704 µM	0.524
[7], 1.111 µM	0.368
[7], 3.333 µM	0.41
[8], 0.00017 µM	1.07
[8], 0.00051 µM	1.06
[8], 0.00152 µM	1.05
[8], 0.00457 µM	1.02
[8], 0.01372 µM	0.964
[8], 0.04115 µM	0.84
[8], 0.1235 µM	0.7165
[8], 0.3704 µM	0.586
[8], 1.111 µM	0.607
[8], 3.333 µM	0.691
[8], 10 µM	0.557
[9], 0.00017 µM	1.02
[9], 0.00051 µM	1.01
[9], 0.00152 µM	0.957
[9], 0.00457 µM	0.959
[9], 0.01372 µM	0.9603
[9], 0.04115 µM	0.936
[9], 0.1235 µM	0.898
[9], 0.3704 µM	0.875
[9], 1.111 µM	0.859
[9], 3.333 µM	0.89
[9], 10 µM	0.988
[10], 0.00017 µM	1.08
[10], 0.00051 µM	1.01
[10], 0.00152 µM	0.907
[10], 0.00457 µM	0.821
[10], 0.01372 µM	0.614
[10], 0.04115 µM	0.558
[10], 0.1235 µM	0.525
[10], 0.3704 µM	0.463
[10], 1.111 µM	0.412
[10], 3.333 µM	0.398
[10], 10 µM	0.334
[11], 0.00017 µM	1
[11], 0.00051 µM	0.988
[11], 0.00152 µM	0.974
[11], 0.00457 µM	0.886
[11], 0.01372 µM	0.85
[11], 0.04115 µM	0.779
[11], 0.1235 µM	0.701
[11], 0.3704 µM	0.469
[11], 1.111 µM	0.384
[11], 3.333 µM	0.369
[11], 10 µM	0.356
[12], 0.00017 µM	1.02
[12], 0.00051 µM	1.02
[12], 0.00152 µM	1.06
[12], 0.00457 µM	1.05
[12], 0.01372 µM	1.07
[12], 0.04115 µM	1.02
[12], 0.1235 µM	1.01
[12], 0.3704 µM	0.82
[12], 1.111 µM	0.646
[12], 3.333 µM	0.654
[12], 10 µM	0.5821
